Results from US20220227763A1, “MICROBIOCIDAL DERIVATIVES” (SYNGENTA CROP PROTECTION AG, priority 2019, published 2022).

Tests used:
[1] = system: Mycosphaerella graminicola (Septoria tritici); assay: Mycosphaerella graminicola (Septoria tritici) / liquid culture (Septoria blotch); type: cell-based; details: Zymoseptoria tritici, growth inhibition determined photometrically 4-5 days after application, compared to untreated control
Protocol: Example B5: Mycosphaerella graminicola (Septoria tritici)/Liquid Culture (Septoria blotch) Conidia of the fungus from cryogenic storage are directly mixed into nutrient broth (PDB potato dextrose broth). After placing a (DMSO) solution of test compound into a microtiter plate (96-well format), the nutrient broth containing the fungal spores is added. The test plates are incubated at 24° C. and the inhibition of growth is determined photometrically 4-5 days after application. […] […]-19.

| melting point | Structure (SMILES) | inhibition of growth at 20 ppm [1] |
| --- | --- | --- |
| 65 to 89 °C | CC1(C)CCC1NC(=O)c1nc(Nc2cc(F)cc(F)c2)cc2cc[nH]c12 (stereo not shown) [Compound P-1, 5-(3,5-difluoroanilino)-N-(2,2-dimethylcyclobutyl)-1H-pyrrolo[2,3-c]pyridine-7-carboxamide] | ≥ 80% |
| 115 to 148 °C | CC1(C)CCC1NC(=O)c1nc(Nc2cc(F)nc(F)c2)cc2cc[nH]c12 (stereo not shown) [Compound P-2, 5-[(2,6-difluoro-4-pyridyl)amino]-N-(2,2-dimethylcyclobutyl)-1H-pyrrolo[2,3-c]pyridine-7-carboxamide] | ≥ 80% |
| 158 to 166 °C | Cn1cc(Nc2cc3cn[nH]c3c(C(=O)NC3CCC3(C)C)n2)cn1 (stereo not shown) [Compound P-4, N-(2,2-dimethylcyclobutyl)-5-[(1-methylpyrazol-4-yl)amino]-1H-pyrazolo[3,4-c]pyridine-7-carboxamide] |  |
| 158 to 166 °C | CC1(C)CCC1NC(=O)c1nc(Nc2cnsc2)cc2cn[nH]c12 (stereo not shown) [Compound P-5, N-(2,2-dimethylcyclobutyl)-5-(isothiazol-4-ylamino)-1H-pyrazolo[3,4-c]pyridine-7-carboxamide] | ≥ 80% |
| 167 to 176 °C | CC1(C)CCC1NC(=O)c1nc(Nc2cc(F)cc(F)c2)cc2cn[nH]c12 (stereo not shown) [Compound P-6, 5-(3,5-difluoroanilino)-N-(2,2-dimethylcyclobutyl)-1H-pyrazolo[3,4-c]pyridine-7-carboxamide] | ≥ 80% |
| 222 to 238 °C | CC1(C)CCC1NC(=O)c1nc(Nc2ccnc(F)c2)cc2cn[nH]c12 (stereo not shown) [Compound P-7, N-(2,2-dimethylcyclobutyl)-5-[(2-fluoro-4-pyridyl)amino]-1H-pyrazolo[3,4-c]pyridine-7-carboxamide] | ≥ 80% |
| 240 to 250 °C | CC1(C)CCC1NC(=O)c1nc(Nc2cc(F)nc(F)c2)cc2cn[nH]c12 (stereo not shown) [Compound P-8, 5-[(2,6-difluoro-4-pyridyl)amino]-N-(2,2-dimethylcyclobutyl)-1H-pyrazolo[3,4-c]pyridine-7-carboxamide] | ≥ 80% |
| 158 to 162 °C | CCCCCNC(=O)c1nc(Nc2cncc(F)c2)cc2cc[nH]c12 [Compound P-10, 5-[(5-fluoro-3-pyridyl)amino]-N-pentyl-1H-pyrrolo[2,3-c]pyridine-7-carboxamide] |  |
| 220 to 233 °C | CCCCCNC(=O)c1nc(Nc2cc(F)nc(F)c2)cc2cc[nH]c12 [Compound P-11, 5-[(2,6-difluoro-4-pyridyl)amino]-N-pentyl-1H-pyrrolo[2,3-c]pyridine-7-carboxamide] |  |
| 155 to 168 °C | CCCCCNC(=O)c1nc(Nc2cncc(F)c2)cc2cn[nH]c12 [Compound P-13, 5-[(5-fluoro-3-pyridyl)amino]-N-pentyl-1H-pyrazolo[3,4-c]pyridine-7-carboxamide] |  |
| 185 to 195 °C | O=C(NC1CCC12CCCC2)c1nc(Nc2cncc(F)c2)cc2cn[nH]c12 (stereo not shown) [Compound P-15, 5-[(5-fluoro-3-pyridyl)amino]-N-spiro[3.4]octan-3-yl-1H-pyrazolo[3,4-c]pyridine-7-carboxamide] |  |
| 180 to 191 °C | O=C(NC1CCC12CCCC2)c1nc(Nc2cncc(F)c2)cc2cc[nH]c12 (stereo not shown) [Compound P-17, 5-[(5-fluoro-3-pyridyl)amino]-N-spiro[3.4]octan-3-yl-1H-pyrrolo[2,3-c]pyridine-7-carboxamide] |  |
| 170 to 178 °C | O=C(NC1CCC12CCCC2)c1nc(Nc2cc(F)nc(F)c2)cc2cc[nH]c12 (stereo not shown) [Compound P-18, 5-[(2,6-difluoro-4-pyridyl)amino]-N-spiro[3.4]octan-3-yl-1H-pyrrolo[2,3-c]pyridine-7-carboxamide] | ≥ 80% |
| 168 to 180 °C | O=C(NC1CCC12CCCC2)c1nc(Nc2cc(F)nc(F)c2)cc2cn[nH]c12 (stereo not shown) [Compound P-19, 5-[(2,6-difluoro-4-pyridyl)amino]-N-spiro[3.4]octan-3-yl-1H-pyrazolo[3,4-c]pyridine-7-carboxamide] | ≥ 80% |
